Calls of active or inactive are those of the source. No cut-off for these calls is given here.
Tests used:
PLC-PRF-5 [1] = assay: Antiproliferative activity against human PLC/PRF/5 cells after 48 hrs by MTT assay; conditions: PLC-PRF-5, 48 h
Aminopeptidase N = target: T1, Aminopeptidase N (Sus scrofa, UniProt P15145); assay: Inhibition of porcine kidney CD13 using L-leucine-p-nitroanilide as substrate preincubated for 5 mins followed by substrate addition measured after 30 mins
T1 sequence (P15145 whole entry): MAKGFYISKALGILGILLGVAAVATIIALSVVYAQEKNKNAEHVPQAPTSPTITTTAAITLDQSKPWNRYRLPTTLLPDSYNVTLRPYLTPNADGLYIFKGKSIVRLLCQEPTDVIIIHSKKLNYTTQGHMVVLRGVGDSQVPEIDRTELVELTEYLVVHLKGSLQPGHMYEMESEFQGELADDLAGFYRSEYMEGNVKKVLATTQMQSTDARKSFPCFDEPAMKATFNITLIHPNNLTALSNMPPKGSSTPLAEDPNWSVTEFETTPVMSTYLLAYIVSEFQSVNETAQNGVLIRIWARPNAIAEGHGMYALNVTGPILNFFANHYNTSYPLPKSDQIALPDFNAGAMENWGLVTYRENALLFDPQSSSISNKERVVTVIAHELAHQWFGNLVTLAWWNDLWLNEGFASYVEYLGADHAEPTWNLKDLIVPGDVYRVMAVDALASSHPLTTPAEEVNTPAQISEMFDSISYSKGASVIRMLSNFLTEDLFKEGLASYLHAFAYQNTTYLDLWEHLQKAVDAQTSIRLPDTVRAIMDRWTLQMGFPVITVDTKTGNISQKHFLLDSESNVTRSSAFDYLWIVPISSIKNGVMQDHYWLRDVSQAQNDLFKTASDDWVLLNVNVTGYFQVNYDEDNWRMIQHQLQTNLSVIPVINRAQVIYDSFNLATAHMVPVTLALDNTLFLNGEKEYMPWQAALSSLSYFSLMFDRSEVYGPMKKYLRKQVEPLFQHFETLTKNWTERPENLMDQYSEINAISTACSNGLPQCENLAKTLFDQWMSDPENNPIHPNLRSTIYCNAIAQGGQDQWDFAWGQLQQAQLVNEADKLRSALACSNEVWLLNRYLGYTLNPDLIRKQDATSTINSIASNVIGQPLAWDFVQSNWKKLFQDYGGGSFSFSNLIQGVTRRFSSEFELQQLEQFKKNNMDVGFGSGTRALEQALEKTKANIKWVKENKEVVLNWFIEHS

cells [2] = conditions: Homo sapiens, ES-2, 48 h
Description: Antiproliferative activity against human ES2 cells after 48 hrs by MTT assay

[3] = MRT (0 to infinity) in Wistar rat at 80 mg/kg, iv after 0.05 to 24 hrs by HPLC-MS/MS analysis; type: ADME, organism-based; conditions: Wistar, in vivo
U-937 [4] = assay: Antiproliferative activity against human U937 cells in presence of ubenimex after 48 hrs by MTT assay; type: functional, cell-based; conditions: U-937, 48 h
PLC-PRF-5 [5] = assay: Induction of apoptosis in human PLC/PRF/5 cells assessed as early apoptotic cells at 20 uM in presence of ubenimex after 48 hrs by annexin-V-FITC/propidium iodide staining-based flow cytometric method (reference value: 5.82%); type: functional
PLC-PRF-5 [6] = assay: Induction of apoptosis in human PLC/PRF/5 cells assessed as necrotic cells at 20 uM after 48 hrs by annexin-V-FITC/propidium iodide staining-based flow cytometric method (reference value: 0.106%); type: functional
PLC-PRF-5 [7] = assay: Downregulation of CD13 expression in human PLC/PRF/5 cells at 10 uM after 48 hrs by flow cytometric method; type: functional, cell-based
[8] = Antiproliferative activity against human H7402 cells after 48 hrs by MTT assay; conditions: H7402, 48 h
A549 = assay: Antiproliferative activity against human A549 cells after 48 hrs by MTT assay; conditions: A549, 48 h
HCT-116 [9] = assay: cells; conditions: Homo sapiens, HCT-116, 48 h
PLC-PRF-5 [10] = assay: Induction of apoptosis in human PLC/PRF/5 cells assessed as necrotic cells at 20 uM in presence of ubenimex after 48 hrs by annexin-V-FITC/propidium iodide staining-based flow cytometric method (reference value: 0.106%); type: functional
PLC-PRF-5 [11] = assay: Induction of apoptosis in human PLC/PRF/5 cells assessed as early apoptotic cells at 20 uM after 48 hrs by annexin-V-FITC/propidium iodide staining-based flow cytometric method (reference value: 5.82%); type: functional
U-937 [12] = assay: cells; conditions: Homo sapiens, U-937, 48 h
Description: Antiproliferative activity against human U937 cells after 48 hrs by MTT assay

PLC-PRF-5 [13] = assay: Induction of apoptosis in human PLC/PRF/5 cells assessed as late apoptotic cells at 20 uM after 48 hrs by annexin-V-FITC/propidium iodide staining-based flow cytometric method (reference value: 0.341%); type: functional
U-266 [14] = assay: Antiproliferative activity against human U266 cells in presence of ubenimex after 48 hrs by MTT assay; type: functional, cell-based; conditions: U-266, 48 h
Rattus norvegicus = assay: VRT (0 to infinity) in Wistar rat at 80 mg/kg, iv after 0.05 to 24 hrs by HPLC-MS/MS analysis; type: ADME, organism-based; conditions: in vivo
H22 = assay: Antitumor activity against 5-FU-resistant […] cells xenografted in Kunming mouse at 20 mg/kg, ip after 14 days; type: functional, organism-based
cells [15] = conditions: Homo sapiens, H7402, 48 h
[16] = Cmax in Wistar rat at 80 mg/kg, iv after 0.05 to 24 hrs by HPLC-MS/MS analysis; type: ADME, organism-based; set-up: dose 80 mg/kg, route intravenous; conditions: in vivo
PLC-PRF-5 [17] = assay: Induction of apoptosis in human PLC/PRF/5 cells assessed as late apoptotic cells at 20 uM in presence of ubenimex after 48 hrs by annexin-V-FITC/propidium iodide staining-based flow cytometric method (reference value: 0.341%); type: functional
[18] = Apparent clearance in Wistar rat at 80 mg/kg, iv after 0.05 to 24 hrs by HPLC-MS/MS analysis; type: ADME, organism-based; conditions: in vivo, read-out: CL(app) (converted)
PLC-PRF-5 [19] = assay: Induction of apoptosis in human PLC/PRF/5 cells assessed as viable cells at 20 uM in presence of ubenimex after 48 hrs by annexin-V-FITC/propidium iodide staining-based flow cytometric method (reference value: 93.7%); type: functional; conditions: PLC-PRF-5, 48 h, read-out: Activity
PLC-PRF-5 [20] = assay: Antiproliferative activity against human PLC/PRF/5 cells in presence of ubenimex after 48 hrs by MTT assay; type: functional, cell-based; conditions: PLC-PRF-5, 48 h
HCT-116 [21] = assay: cells; conditions: Homo sapiens, HCT-116, 48 h; remark: listed apart in the source
U-266 [22] = assay: Antiproliferative activity against human U266 cells after 48 hrs by MTT assay; conditions: U-266, 48 h
[23] = Drug level in Wistar rat plasma treated with (5-fluoro-2,4-dioxo-3,4-dihydropyrimidin1(2H)-yl)methyl-2-((S)-2-((2S,3R)-3-amino-2-hydroxy-4-phenylbut-anamido)-4-methylpentanamido)acetate hydrochloride assessed as carboxylesterase-mediated compound formation at 80 mg/kg, iv by HPLC-MS/MS analysis; type: ADME, organism-based; conditions: in vivo
cells [24] = conditions: Homo sapiens, ES-2, 48 h; remark: listed apart in the source
HepG2 [25] = assay: cells; conditions: Homo sapiens, HepG2, 48 h
[26] = Drug level in human plasma treated with (5-fluoro-2,4-dioxo-3,4-dihydropyrimidin1(2H)-yl)methyl-2-((S)-2-((2S,3R)-3-amino-2-hydroxy-4-phenylbut-anamido)-4-methylpentanamido)acetate hydrochloride at 4 mg/ml after 8 hrs by HPLC method; type: ADME, cell-free
HepG2 [27] = assay: cells; conditions: Homo sapiens, HepG2, 48 h; remark: listed apart in the source
PLC-PRF-5 [28] = assay: Induction of apoptosis in human PLC/PRF/5 cells assessed as viable cells at 20 uM after 48 hrs by annexin-V-FITC/propidium iodide staining-based flow cytometric method (reference value: 93.7%); type: functional; conditions: PLC-PRF-5, 48 h, read-out: Activity
[29] = Volume of distribution during elimination phase in Wistar rat at 80 mg/kg, iv after 0.05 to 24 hrs by HPLC-MS/MS analysis; type: ADME, organism-based; conditions: in vivo, read-out: Vz
PLC-PRF-5 [30] = assay: Downregulation of CD13 expression in human PLC/PRF/5 cells at 10 uM in presence of ubenimex after 48 hrs by flow cytometric method; type: functional, cell-based
[31] = AUC (0 to infinity) in Wistar rat at 80 mg/kg, iv after 0.05 to 24 hrs by HPLC-MS/MS analysis; type: ADME, organism-based; set-up: dose 80 mg/kg, time infinity, route intravenous; conditions: in vivo
[32] = Terminal Half life in Wistar rat at 80 mg/kg, iv after 0.05 to 24 hrs by HPLC-MS/MS analysis; type: ADME, organism-based; conditions: Wistar, in vivo, read-out: beta t1/2 (converted)

CC(C)C[C@H](NC(=O)[C@@H](O)[C@H](N)Cc1ccccc1)C(=O)N[C@@H](C)C(=O)OCn1cc(F)c(=O)[nH]c1=O
IC50 (PLC-PRF-5 [1]): 24.2 µM | IC50 (Aminopeptidase N): 0.17 µM | IC50 (cells [2]): 25.3 µM

CC(C)C[C@H](NC(=O)[C@@H](O)[C@H](N)Cc1ccccc1)C(=O)OCn1cc(F)c(=O)[nH]c1=O
IC50 (PLC-PRF-5 [1]): 18.4 µM | IC50 (Aminopeptidase N): 3.18 µM | IC50 (cells [2]): 26.1 µM

CC(C)C[C@H](NC(=O)[C@@H](O)[C@H](N)Cc1ccccc1)C(=O)NCCCCCC(=O)OCn1cc(F)c(=O)[nH]c1=O
IC50 (PLC-PRF-5 [1]): 60.1 µM | IC50 (Aminopeptidase N): 1.83 µM | IC50 (cells [2]): 104 µM

O=c1[nH]cc(F)c(=O)[nH]1 [FLUOROURACIL]
MRT inf [3]: 2.48 h | IC50 (U-937 [4]): 9.56 µM | Activity (PLC-PRF-5 [5]): 33.3% | Activity (PLC-PRF-5 [6]): 0% | Activity (PLC-PRF-5 [7]): inactive | IC50 [8]: 21.9 µM | IC50 (A549): 17 µM | IC50 (HCT-116 [9]): 53.8 µM | Activity (PLC-PRF-5 [10]): 0% | Activity (PLC-PRF-5 [11]): 20.1% | IC50 (U-937 [12]): 28.8 µM | Activity (PLC-PRF-5 [13]): 6.8% | IC50 (U-266 [14]): 43.5 µM | IC50 (PLC-PRF-5 [1]): 35.7 µM | VRT (Rattus norvegicus): 4.205 hr2 | Activity (H22): inactive | IC50 (cells [15]): 17.6 µM | Cmax [16]: 3810 ng/mL | Activity (PLC-PRF-5 [17]): 2.38% | clearance [18]: 98.4 mL/min/kg | viability at 20 µM (PLC-PRF-5 [19]): 64.3% | IC50 (PLC-PRF-5 [20]): 22.8 µM | IC50 (HCT-116 [21]): 44.1 µM | IC50 (U-266 [22]): 66.2 µM | Drug metabolism [23]: Metabolite_Detected | IC50 (cells [24]): 37.1 µM | IC50 (HepG2 [25]): 18.4 µM | Drug metabolism [26]: Metabolite_Detected | IC50 (HepG2 [27]): 14.5 µM | viability at 20 µM (PLC-PRF-5 [28]): 73.1% | IC50 (cells [2]): 71.5 µM | Vd [29]: 20.1 L/kg | Activity (PLC-PRF-5 [30]): Active | AUC(0-inf) [31]: 13600 ng·h/mL | half-life [32]: 2.35 h

Reference: ChEMBL document CHEMBL4138213, “Synthesis and biological characterization of ubenimex-fluorouracil conjugates for anti-cancer therapy” (Eur J Med Chem, 2018)
